Test results as given in PMC8704389, “New Insights into the Hypotensins from Tityus serrulatus Venom: Pro-Inflammatory and Vasopeptidases Modulation Activities” (Toxins, 2021).
No end group written: not given here.

Experiments:
[1] = test system: NEP; test: Modulation of NEP activity, FRET substrate Abz-RGFK(Dnp)-OH; type: biochemical, human; details: 10 µM peptide, 1.5 ng NEP, Abz-RGFK(Dnp)-OH (3.5 µM in method, 10 µM in table note), Tris HCl 50 mM, pH 7.5, 37 °C, 15 min, fluorescence 320/420 nm, triplicate
Protocol: The results were obtained by incubating the enzymes with their FRET substrates (10 µM) in a final volume of 100 µL. For the ACE assays, the used buffer was Tris HCl 100 mM, NaCl 50 mM and ZnCl2 10 µM, pH 7.0. For NEP, the assays were made in Tris HCl 50 mM, pH 7.5 buffer. All reactions occurred at 37 °C, in a Victor 3 fluorimeter (Perkin–Elmer) adjusted for excitation and emission readings at 320 and 420 nm, respectively, for 15 min (one reader per minute). Results were obtained in triplicate and analyzed on GraFit 5 software.
For ACE assays, 10 µM of each peptide was incubated with 3.0 ng of peptidase and 10 µM of Abz-FRK (Dnp) P-OH substrate, in Tris HCl 100 mM, NaCl 50 mM and ZnCl2 10 µM, pH 7.0 buffer. For NEP, 10 µM of TsHpt-I or -II was incubated with 1.5 ng of peptidase, 3.5 µM Abz-RGFK (Dnp)-OH in Tris HCl 50 mM, pH 7.5 buffer. All reactions occurred at 37 °C, in a final volume of 100 µL, in a Victor 3 fluorimeter (Perkin–Elmer, Waltham, MA, USA) adjusted for excitation and emission readings at 320 and 420 nm, respectively, for 15 min (one reader per minute). Results were obtained in triplicate and analyzed using GraFit 5 (Erithacus software, East Grinstead, West Sussex, UK).

[2] = test system: T1, ACE; test: Stability of peptides against ACE (susceptibility to hydrolysis, RP-HPLC); type: in vitro ADME; details: rabbit, isolated ACE (angiotensin-converting enzyme); 30 µM peptide, ACE 3.0 ng, Tris HCl 100 mM, NaCl 50 mM, ZnCl2 10 µM, pH 7.0, 4 h, 37 °C, RP-HPLC C18, UV 214 nm; read-out: hydrolysis products after incubation with ACE
T1 construct: Angiotensin Converting Enzyme (ACE) from rabbit lung; purchased Sigma-Aldrich; host or cells: rabbit lung tissue
Protocol: Figure 1 Analysis of the susceptibility to hydrolysis of the hypotensins over the vasopeptidases NEP and ACE. Incubations were carried out in Tris HCl 100 mM, NaCl 50 mM and ZnCl2 10 µM, pH 7.0, for the ACE assays, and, for the NEP assays, in Tris HCl 50 mM, pH 7.5 buffer, for four hours at 37 °C. (A) TsHpt-I control (black line) and after incubation with NEP (red line). (B) TsHpt-II control (black line) and TsHpt-II incubated with NEP (red line). (C) TsHpt-I control (black line) and incubated with ACE (red line). (D) TsHpt-II control (black line) and after incubation with ACE (red line). The samples of negative and experimental controls (A) TsHpt-I and (B) TsHpt-II are shown on the left and right, respectively. The hydrolysis products were considered ≤5%. The gradient used was 20% to 60% solvent B in 20 min, and 60% to 100% solvent B in 5 min (flow 1 mL/min, absorbance at 214 nm). Restek Ultra C-18 5 µm column, 250 × 4.6 mm.
The synthetic peptides TsHpt-I and TsHpt-II (30 µM) were incubated with ACE (3.0 ng), in Tris HCl 100 mM, NaCl 50 mM and ZnCl2 10 µM, pH 7.0 buffer, and NEP (1.5 ng), in Tris HCl 50 mM, pH 7.5 buffer, at 37 °C for 4 h. Samples containing only the synthetic peptides were used as the negative control. After incubation, samples were analyzed by reverse phase chromatography on RP-HPLC (Shimadzu, Kyoto, Japan), using a Restek Ultra C-18 column (5 µm, 250 × 4.6 mm). […]

[3] = test system: murine peritoneal macrophages; test: Cell viability of murine peritoneal macrophages, MTT method; type: cell-based, BALB/c mice; details: 24 h
Protocol: Figure 3 Cytotoxic effect of hypotensins I and II on murine peritoneal macrophages in vitro. Peritoneal exudate macrophages from naïve BALB/c mice were cultured for 24 h in the presence of TsHpt-I (A) and -II (B) at concentrations of 10 µg/mL, 50 µg/mL and 100 µg/mL. Cells cultured with medium alone or in the presence of 5 µg/mL LPS were used as the controls. Cell viability was determined by the MTT method. The results represent the mean ± SD of two independent experiments performed in triplicate. * p < 0.05.
Peritoneal exudate cells (BALB/c naïve mice, n = 6) were collected by two washes with 5 mL of RPMI medium. The cells obtained were washed twice with RMPI medium, at 400 g, for 10 min, at 18 °C, and resuspended in R10 medium (RPMI + 10% fetal cow serum). After counting in a Neubauer chamber, in the presence of Trypan blue, the cell concentration was adjusted to 2 × 10^6 cells/mL. Cells were distributed into 96-well culture plates (2 × 10^5 cells/100 µL/well) and incubated for 2 h at 37 °C and 5% CO2. After incubation, non-adherent cells were discarded, and adherent cells (macrophages) were resuspended in R10 medium containing the respective tested stimuli, at different concentrations, in triplicates, in a final volume of 200 µL/well. Cells resuspended in R10 medium were used as a negative control, and cells stimulated with LPS (5 µg/mL) as a positive control. Cells were then incubated for 24 h at 37 °C and 5% CO2. After this period, the culture supernatants were collected and stored at −80 °C, for subsequent dosage of cytokines, and cell viability was determined by MTT assay.
After a 24-h period of incubation of cells with hypotensins (10 µg/mL, 50 µg/mL and 100 µg/mL), MTT assays were performed, consisting of the addition of 100 µL of R10 containing 0.5 mg/mL of tetrazolium salt 3-(4.5-dimethylthiazol-2-yl)-2,5-diphenyltetrazolium bromide (MTT) in all wells, followed by a new incubation, under the same conditions, for 4 h. Then, the supernatants were discarded, and 100 µL/well of DMSO were added to dissolve the formed crystals. Absorbance was determined in a spectrophotometer at 540 nm. Cell viability was calculated based on the absorbances of the samples and the negative control (cells cultivated only with R10).

[4] = 10 µg/mL, control (medium) = 100%, two independent experiments in triplicate

## AEIDFSGIPEDIIKQIKETNAKPPA [TsHpt-I]
[1]
  NEP Inhibition (%): 75%
[2]
  metabolised at 4 h, 30 µM: ≤ 5%
[3]; [4]
  cell viability: about 75%
[3]; 100 µg/mL
  cell viability: not able to decrease cellular viability

## AEIDFSGIPEDIIKEIKETNAKPPA [TsHpt-II]
[1]
  NEP Inhibition (%): 11%
[2]
  metabolised at 4 h, 30 µM: ≤ 5%
[3]; [4]
  cell viability: about 75%
[3]; 100 µg/mL
  cell viability: not able to decrease cellular viability
